The subject of series [1] is Secretion of ApoB. As to the kind of experiment: Quantification of the secretion of ApoB. The series is classed as cell-based. Conditions: HepG2 cells, 24 hours of incubation with test compound. The protocol: HepG2 cells were cultured in 24-well plates in MEM Rega 3 containing 10% fetal calf serum. At 70% confluency, the medium was changed and the test compound or carrier (DMSO, 0.4% final concentration) was added. After 24 hours of incubation, the medium was transferred to Eppendorf tubes and cleared by centrifugation. A sheep antibody directed against either apoB was added to the supernatant and the mixture was kept at 8° C. for 24 hours. Then, rabbit anti-sheep antibody was added and the immune complex was allowed to precipitate for 24 hours at 8° C. The immunoprecipitate was pelleted by centrifugation for 25 minutes at 1320 g and washed twice with a buffer containing 40 mM Mops, 40 mM NaH2PO4, 100 mM NaF, 0.2 mM DTT, 5 mM EDTA, 5 mM EGTA, 1% Triton-X-100, 0.5% sodium deoxycholate (DOC), 0.1% SDS, 0.2 μM leupeptin and 0.2 μM PMSF. Radioactivity in the pellet was quantified by liquid scintillation counting.
Resulting IC50 values are enumerated in Table C. 1.

The structures appear in SMILES notation.

The melting point is the temperature, or range, at which the solid turns liquid.

Consider `COC(=O)CNC(=O)C(c1ccccc1)C1CCN(c2ccc(NC(=O)c3ccccc3-c3ccc(C(C)(C)C)cc3)cc2)CC1` (stereo not drawn) [Co. No. 145, (B)—N-[[1-[4-[[[4′-(1,1-dimethylethyl)[1,1′-biphenyl]-2-yl]carbonyl]amino]phenyl]-4-piperidinyl]phenylacetyl]-glycine methyl ester], for which the melting point was in the range of 119.9 to 120 °C.
Same read-out and setting: then `COC(=O)COC(=O)C(c1ccccc1)N1CCN(c2ccc(NC(=O)c3ccccc3-c3ccc(C(F)(F)F)cc3)cc2)CC1` (stereo not drawn) [Co. No. 14, 2-methoxy-2-oxoethyl α-phenyl-4-[4-[[[4′-(trifluoromethyl)[1,1′-biphenyl]-2-yl]carbonyl]amino]phenyl]-1-piperazineacetate], with 106 °C.
For the molecule `COC(=O)COC(=O)C(c1ccccc1)N1CCN(c2ccc(NC(=O)c3ccccc3-c3ccc(C(F)(F)F)cc3)cc2)CC1` (stereo not drawn) [compound 14], in series [1], the “pIC50 values (=−log IC50 value)” value is recorded as 6.591.

For the origin of these results see US7642378B2, “Lipid lowering biphenylcarboxamides” (Janssen Pharmaceutica NV, priority 2001, dated 2010).
